Read-outs that look alike come from different tables or passages of the source.
Assays:
DMS 114 = assay: NCI human tumor in vitro primary screen; assay type: cell-based; settings: small cell lung cancer
DMS 273 = assay: NCI human tumor in vitro primary screen; assay type: cell-based; settings: small cell lung cancer
[1] = read-out: Log10 GI50 (converted)
[2] = read-out: Log10 TGI (converted)
[3] = read-out: averaged negative log10 GI50 (converted)

SMILES: C=C1CC2CCC34CC5OC6C(O3)C3OC(CCC3OC6(O)C5O4)CC(=O)OC3C(CC4OC(CCC1O2)CC(C)C4=C)OC1CC2OC4(CC2OC1C3C)CC1OC2(CC(C)C3OC5CC(C(O)CO)OC5CC3O2)CC(C)C1O4 (stereo not drawn) [halistatin 2]
- GI50 (DMS 114; [1]): 0.339 nM
- IC (TGI) (DMS 114; [2]): 1.91 nM
- GI50 (DMS 114; [3]): 0.339 nM
- GI50 (DMS 273; [1]): 0.129 nM
- IC (TGI) (DMS 273; [2]): 5.5 nM
- GI50 (DMS 273; [3]): 0.129 nM

Source: patent US5352804A, “Isolation and structure of Halistatin 2” (Arizona Board of Regents, a body corporate, acting on …, priority 1993, dated 1994)
